Reference: US8389557B2, “Triazole derivatives useful as Axl inhibitors” (Rigel Pharmaceuticals, Inc., priority 2005, dated 2013)

Target: T1, Axl (Homo sapiens, UniProt P30530)
T1 construct: endogenous in cells; host or cells: HeLa cells
T1 sequence (P30530 26-894): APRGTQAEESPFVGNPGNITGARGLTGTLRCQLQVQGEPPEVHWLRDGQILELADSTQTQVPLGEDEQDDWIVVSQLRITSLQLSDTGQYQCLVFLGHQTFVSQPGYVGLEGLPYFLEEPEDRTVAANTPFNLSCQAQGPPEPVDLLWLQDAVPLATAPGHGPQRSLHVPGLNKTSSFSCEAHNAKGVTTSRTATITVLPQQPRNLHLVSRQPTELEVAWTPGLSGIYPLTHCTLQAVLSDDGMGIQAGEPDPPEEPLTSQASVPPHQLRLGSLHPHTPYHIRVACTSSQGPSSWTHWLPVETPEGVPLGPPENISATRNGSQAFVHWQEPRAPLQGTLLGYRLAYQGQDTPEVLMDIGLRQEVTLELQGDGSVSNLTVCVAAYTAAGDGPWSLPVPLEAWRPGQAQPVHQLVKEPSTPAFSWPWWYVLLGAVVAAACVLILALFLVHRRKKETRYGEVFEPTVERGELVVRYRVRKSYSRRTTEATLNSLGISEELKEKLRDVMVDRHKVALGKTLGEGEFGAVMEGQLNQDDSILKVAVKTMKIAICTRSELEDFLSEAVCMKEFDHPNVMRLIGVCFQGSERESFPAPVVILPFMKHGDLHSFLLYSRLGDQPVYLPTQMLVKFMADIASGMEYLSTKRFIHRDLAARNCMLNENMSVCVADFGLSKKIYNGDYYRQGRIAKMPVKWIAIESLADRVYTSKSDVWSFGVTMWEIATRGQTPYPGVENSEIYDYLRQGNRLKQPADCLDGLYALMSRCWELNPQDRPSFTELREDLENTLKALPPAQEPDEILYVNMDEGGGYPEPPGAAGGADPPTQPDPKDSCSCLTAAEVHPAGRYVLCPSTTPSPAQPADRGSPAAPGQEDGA
Test: Phospho-Akt in-cell Western assay (inhibition of Axl activity)
Type: cell-based
Description: The compounds of the invention were tested in the following assay for their ability to inhibit Axl activity.
Phospho-Akt in-Cell Western Assay
• Cell culture plate: 96 well assay plate (Corning 3610), white, clear bottom, tissue-culture treated. • Cells: Hela cells. • Starvation medium: For Axl stimulation: 0.5% FCS (fetal calf serum) in DMEM, plus Axl/Fc (extracellular domain of AXL fused to immunoglobulin Fc region) (R&D, 154-AL) 500 ng/mL. • For EGF (epidermal growth factor) stimulation: 0.5% FCS in DMEM (Dulbecco's modified Eagles medium). • Poly-L-Lysine 0.01% solution (the working solution): 10 μg/ml, dilute In PBS (phosphate buffered saline). • Axl antibody cross-linking: • 1st: Mouse anti-Axl (R&D, MAB154). • 2nd: Biotin-SP-conjugated AffiniPure goat anti-mouse IgG (H+L) (Jackson ImmunoResearch #115-065-003). • Fixing buffer: 4% formaldehyde in PBS. • Wash buffer: 0.1% TritonX-100 in PBS. • Quenching buffer: 3% H2O2, 0.1% Azide in wash buffer, Azide and hydrogen peroxide (H2O2) are added fresh. • Blocking buffer: 5% BSA in TBST (tris buffered saline plus 0.1% Tween 20). • Primary antibody: Rabbit anti-human Phospho-Akt antibody (Cell Signaling 9271): 1×250 diluted in blocking buffer. • Secondary antibody: HRP (horse radish peroxidase)-conjugated Goat anti-Rabbit secondary, stock solution: Jackson ImmunoResearch (Goat anti-Rabbit HRP, #111-035-144) 1:1 diluted in glycerol, store at −20° C. The working solution: 1×2000 dilution of stock in blocking buffer. • Chemiluminescent working solution (Pierce, 37030): SuperSignal ELISA (enzyme linked immunosorbant assay) Pico Chemiluminescent substrate. • Crystal Violet solution: Stock: 2.5% Crystal violet in methanol, filtered and kept at ambient temperature. The working solution: dilute the stock 1:20 with PBS immediately before use. • 10% SDS: working solution: 5% SDS (sodium dodecylsulfate), diluted in PBS Methods: Day 1:
A 96 well TC (tissue culture treated) plate was coated with 10 μg/mL poly-L-Lysine at 37° C. for 30 min, washed twice with PBS, and air-dried for 5 minutes before cells were added. Hela cells were seeded at 10,000 cells/well and the cells were starved in 100 μL starvation medium containing Axl/Fc for 24 hrs.
The cells were pre-treated with test compounds by adding 100 μL of 2× test compound to the starvation medium on the cells. The cells were incubated at 37° C. for 1 hr before stimulation.
The cells were stimulated by Axl-antibody cross-linking as follows: A 5×1st/2nd Axl antibody mixture was made (37.5 μg/mL 1st/100 μg/mL 2nd) in starvation medium and nutated at 4° C. with thorough mixing for 1-2 hours for clustering. The resulting mix was warmed to 37° C. 50 μL of 5× Axl 1st/2nd of antibody cluster was added to the cells and the cells were incubated at 37° C. for 5 min.
After 5 minutes stimulation, the plate was flicked to remove medium and the plate was tapped onto paper towels. Formaldehyde (4.0% in PBS, 100 μL) was added to fix the cells and the cells were incubated at ambient temperature for 20 min without shaking.
The cells were washed with a plate washer buffer to remove the formaldehyde solution. The plate was flicked to removed excess wash buffer and tapped onto paper towels. Quenching buffer (100 μL) was added to each well and the cells were incubated at ambient temperature for 20 minutes without shaking.
The cells were washed with a plate washer buffer to remove the quenching buffer. Blocking buffer (100 μL) was added and the cells were incubated at ambient temperature for at least an hour with gentle shaking.
The cells were washed with a plate washer buffer and diluted primary antibody (50 μL) was added to each well (blocking buffer was added to the negative control wells instead). The plates were incubated overnight at 4° C. with gentle shaking.
The wash buffer was removed, diluted secondary antibody (100 μL) was added, and the cells were incubated at ambient temperature for 1 hour with gentle shaking. […]

[1] = Table 4, Hela cells, Axl antibody cross-linking stimulation, phospho-Akt chemiluminescence
[2] = inhibition of Axl activity, Table 1
[3] = Table 3, Hela cells, Axl antibody cross-linking stimulation, phospho-Akt chemiluminescence

| Structure (SMILES) | IC50 [2] [µM] | also measured |
| --- | --- | --- |
| CC(C)Oc1ccc(Nc2nc(N)nn2C(=O)c2ccc3c(c2)NC(=O)C(C)(C)O3)cc1 [compound 66, 3-amino-1-(2,2-dimethyl-2H-benzo[b][1,4]oxazin-3(4H)-on-6-yl)carbonyl-5-(4-(iso-propoxy)phenyl)amino-1H-1,2,4-triazole] | – | IC50 [1]: 1 to 10 µM |
| Nc1nc(Nc2ccc(N3CCOCC3)cc2)nn1C(=O)c1cccc(O)c1 [compound 67, 5-amino-1-(3-(hydroxy)phenyl)carbonyl-3-(4-(morpholin-4-yl)phenylamino)-1H-1,2,4-triazole] | 1 to 10 | – |
| CC1(C)Oc2ccc(C(=O)n3nc(Nc4ccc(N5CCOCC5)cc4)nc3N)cc2NC1=O [compound 68, 5-amino-1-(2,2-dimethyl-2H-benzo[b][1,4]oxazin-3(4H)-on-6-yl)carbonyl-3-(4-(morpholin-4-yl)phenylamino)-1H-1,2,4-triazole] | – | IC50 [3]: 1 to 10 µM |
| CC1(C)Oc2ccc(C(=O)n3nc(N)nc3Nc3ccc(N4CCOCC4)cc3)cc2NC1=O [compound 69, 3-amino-1-(2,2-dimethyl-2H-benzo[b][1,4]oxazin-3(4H)-on-6-yl)carbonyl-5-(4-(morpholin-4-yl)phenylamino)-1H-1,2,4-triazole] | – | IC50 [1]: 1 to 10 µM |
| Nc1nc(Nc2ccc(N3CCOCC3)cc2)nn1C(=O)c1ccc(S(N)(=O)=O)cc1 [compound 70, 5-amino-1-(4-(aminosulfonyl)phenyl)carbonyl-3-(4-(morpholin-4-yl)phenylamino)-1H-1,2,4-triazole] | > 20 | – |
| Nc1nc(Nc2ccc(N3CCOCC3)cc2)nn1C(=O)c1cccc([N+](=O)[O-])c1 [compound 72, 5-amino-3-(4-(morpholin-4-yl)phenylamino)-1-(3-(nitro)phenyl)carbonyl-1H-1,2,4-triazole] | 1 to 10 | – |
| Nc1nc(Nc2ccc(N3CCOCC3)cc2)nn1C(=O)c1cccc(Cl)c1 [compound 74, 5-amino-1-(3-(chloro)phenyl)carbonyl-3-(4-(morpholin-4-yl)phenylamino)-1H-1,2,4-triazole] | 1 to 10 | – |
| Nc1nc(Nc2ccc(N3CCOCC3)cc2)n(C(=O)c2cccc(Cl)c2)n1 [compound 75, 3-amino-1-(3-(chloro)phenyl)carbonyl-5-(4-(morpholin-4-yl)phenylamino)-1H-1,2,4-triazole] | – | IC50 (Table 2, Hela cells, Axl antibody cross-linking stimulation, phospho-Akt chemiluminescence): > 20 µM |
| CC(C)Oc1ccc(Nc2nc(N)n(C(=O)c3ccc(OCCN4CCCCC4)cc3)n2)cc1 [compound 77, 5-amino-3-[4-(iso-propoxy)phenylamino]-1-[4-[2-(piperidin-1-yl)ethoxy]phenyl)carbonyl-1H-1,2,4-triazole] | 1 to 10 | – |
| CC1(C)Oc2ccc(C(=O)n3nc(Nc4ccc(OCCN5CCCCC5)cc4)nc3N)cc2NC1=O [compound 78, 5-amino-1-(2,2-dimethyl-2H-benzo[b][1,4]oxazin-3(4H)-on-6-yl)carbonyl-3-[4-[2-(piperidin-1-yl)ethoxy]phenylamino]-1H-1,2,4-triazole] | – | IC50 [3]: < 1 µM |
| COC(=O)c1cccc(C(=O)n2nc(Nc3ccc(OCCN4CCCCC4)cc3)nc2N)c1 [compound 79, 5-amino-1-(3-(methoxycarbonyl)phenyl)carbonyl-3-[4-[2-(piperidin-1-yl)ethoxy]phenylamino]-1H-1,2,4-triazole] | 1 to 10 | – |

Second part, led by results:

| IC50 [2] [µM] | Structure (SMILES) | also measured |
| --- | --- | --- |
| 1 to 10 | CC(C)Oc1ccc(Nc2nc(N)n(C(=O)c3cccc([N+](=O)[O-])c3)n2)cc1 [compound 71, 5-amino-3-[4-(iso-propoxy)phenylamino]-1-(3-(nitro)phenyl)carbonyl-1H-1,2,4-triazole] | – |
| 1 to 10 | CC(C)Oc1ccc(Nc2nc(N)n(C(=O)c3cccc(O)c3)n2)cc1 [compound 73, 5-amino-1-(3-(hydroxy)phenyl)carbonyl-3-[4-(iso-propoxy)phenylamino]-1H-1,2,4-triazole] | – |
| > 20 | CC(C)Oc1ccc(Nc2nc(N)n(C(=O)c3cccc(Cl)c3)n2)cc1 [compound 76, 5-amino-1-(3-(chloro)phenyl)carbonyl-3-[4-(iso-propoxy)phenylamino]-1H-1,2,4-triazole] | – |
